According to ChEMBL document CHEMBL1157539, “Thousands of chemical starting points for antimalarial lead identification” (Nature, 2010):

Test system: Plasmodium falciparum
Assay: GSK_TCMDC: Inhibition of Plasmodium falciparum 3D7 in whole erythrocytes, using parasite LDH activity as an index of growth.
Assay type: functional, organism-based
Settings: Plasmodium falciparum, 3D7

| Compound | XC50 [µM] |
| --- | --- |
| Cc1ccccc1CNc1ccc2nc(N)nc(N)c2c1 | 0.171 |
| CCc1cn(C)c2c(N3CCCC3=O)cc(C(=O)N[C@@H](Cc3ccccc3)[C@H](O)CNC(C)(C)c3cccc(C(F)(F)F)c3)cc12 | 0.106 |
| CCCCCCCCn1ccc(=N)cc1 | 0.84 |
| C/C=C/C=C/C1=NCCc2cc(OCCC)ccc21 | 0.914 |
| N=C(N)Nc1nc(-c2cc(NC(=O)C(F)(F)F)cc([N+](=O)[O-])c2)cs1 | 0.781 |
| CC[C@H](C)CNC(=O)c1cncc(-c2ccc(CNC3Cc4ccccc4C3)cc2)c1 | 0.829 |
| Cc1c(-c2cccc(C(C)(C)NC3CCN(Cc4ccccc4)CC3)c2)cnc(N)c1C | 0.579 |
| COc1ccc(-c2ccc(CNC(=O)c3ccc(Cl)cc3)c(F)c2)cc1CN1CCCN(C)CC1 | 0.705 |
| CN1CCN(c2cc3c(Nc4ccc5c(cnn5Cc5ccccc5)c4)ncnc3cn2)CC1 | 1.13 |
| COc1ccc2ncc(F)c(CCN3CCC(CNC(=O)C(=O)c4c[nH]c5ccccc45)CC3)c2n1 | 0.389 |
| Cc1cccc(CNc2nc(C)cc(NCCC(=O)NCc3cccc(F)c3)n2)c1 | 0.85 |
| Cc1[nH]c(C)c(-c2ccc(-c3ccc(C#N)cc3)nc2)c(=O)c1Br | 0.981 |
| CCN(CC)/C(=N/C(=N)NCc1cccc(Cl)c1)NCCCCCCN/C(=N\C(=N)NCc1cccc(Cl)c1)N(CC)CC | 0.206 |
| O=C(/C=C/c1ccc(Cl)c(Cl)c1)N1CCC(NCc2c[nH]c3ccccc23)CC1 | 1.07 |
| c1cc(Cc2ccc(Nc3c4ccccc4nc4ccccc34)cc2)cc(Nc2c3ccccc3nc3ccccc23)c1 | 0.143 |
| O=S(=O)(/C=C/c1ccccc1)N(Cc1ccc(-c2ccc(CNCCOc3ccccc3)cc2)cc1)CC1CCCCN1 (stereo not given) | 0.744 |
| Cc1ccc(Nc2nc(C)cc(N3CCN(CCc4ccccc4)CC3)n2)cc1 | 0.972 |
| O=C(NCCN1CCCCC1)c1ccc(CNC(=O)c2ccc(O)c(-c3ccc(Cl)c(Cl)c3)c2)cc1 | 0.9 |
| COc1ccc(-c2cn3c(C(=O)Nc4ccccc4Cl)c(-c4ccccc4)c4c3n2CCCC4)cc1 | 0.792 |
| Cc1cccc2nc(-c3cccc(-c4ccc(NC(=O)c5ccncc5)cc4)c3)[nH]c12 | 0.497 |

| Compound | XC50 [µM] |
| --- | --- |
| O=C(NCCOc1ccccc1)[C@H](Cc1ccccc1)Nc1ccnc(NCC2CCCCC2)n1 | 1.2 |
| O=[N+]([O-])c1cnc(Nc2ccccc2O)nc1Nc1ccccc1O | 0.897 |
| CCCc1cc(N2CCC(N(CC)CC)C2)nc(Nc2ccc(OC)cc2)n1 (stereo not given) | 0.168 |
| CCC(C)NS(=O)(=O)c1ccc2nc(Nc3cccc(SC)c3)n(C(C)C(C)C)c2c1 (stereo not given) | 0.503 |
| Cc1cc(C)cc(N2C(N)=NC(N)=NC2(C)C)c1 | 0.042 |
| CO/C(=C\C=C\c1cc2cc(Cl)c(Cl)cc2[nH]1)C(=O)NCCCN1CC(C)N(C)CC1C (stereo not given) | 1.13 |
| CNCCNCc1ccc(-c2ccc(-c3nc4cc(F)ccc4[nH]3)cc2)cc1 | 0.387 |
| CCOc1ccc2nc3cc([N+](=O)[O-])ccc3c(N)c2c1 | 0.139 |
| c1ccc(Oc2ccc(Nc3ccnc4cc(-c5ccc(CN6CCCCC6)o5)ccc34)cc2)nc1 | 0.331 |
| O=C(Nc1ccc(Cl)cc1)Nc1cccc(-c2ccc(-c3nc4cc(F)ccc4[nH]3)cc2)c1 | 0.0475 |
| COc1ccc(CCN(C)CCCN2CCC(NC(=O)c3cccc4c(=O)c5ccccc5[nH]c34)CC2)cc1OC | 0.695 |
| COc1ccccc1CCNc1nc(C)cc(NCCC(=O)NCCOc2ccccc2)n1 | 1.37 |
| COc1ccccc1N1CCN(CCCCNC(=O)c2ccc(NC(=O)c3ccc(OC(F)(F)F)cc3)cc2)CC1 | 0.663 |
| Cc1ccc(C)c2c1[nH]c1ccc(C3=NCCN3)cc12 | 0.497 |
| CC[C@H](NC(=O)c1c(N)c(-c2sccc2Cl)nc2ccccc12)c1ccccc1 | 0.912 |
| Cc1ccc(NC(=O)c2cc([N+](=O)[O-])ccc2NCc2cccnc2)cc1Cl | 1.12 |
| CCC1CN2CCc3c([nH]c4ccccc34)C2CC1CC1=NCCc2c1[nH]c1ccc(OC)cc21 (stereo not given) | 0.641 |
| CC1CCN(C(=O)[C@H](Cc2c[nH]c3ccccc23)NS(=O)(=O)c2ccc(Cl)cc2)CC1 | 0.667 |
| NOCCCOc1ccc(Cl)cc1 | 0.574 |
| CCN(CC)CCOc1cc2c(cc1Br)-c1cc(Br)c(OCCN(CC)CC)cc1C2=NO | 1.09 |
